Source: patent EP4810493A1, “HETEROCYCLIC CARBONYL DERIVATIVE MODULATOR, PREPARATION METHOD THEREFOR, AND USE THEREOF” (Shanghai Hansoh Biomedical Co., Ltd., priority 2023, dated 2025)
Read-outs that look alike come from different tables or passages of the source.

How the values were obtained:
[1] = six weeks of dosing, cited from earlier work
M4 receptor = biological target: T1, M4 receptor (Homo sapiens, UniProt P08173); assay: Calcium flux (FLIPR) potentiation assay in cells stably expressing M4 receptor; format: cell-based
T1 construct: expressed in transfected cells
T1 sequence (P08173 1-479): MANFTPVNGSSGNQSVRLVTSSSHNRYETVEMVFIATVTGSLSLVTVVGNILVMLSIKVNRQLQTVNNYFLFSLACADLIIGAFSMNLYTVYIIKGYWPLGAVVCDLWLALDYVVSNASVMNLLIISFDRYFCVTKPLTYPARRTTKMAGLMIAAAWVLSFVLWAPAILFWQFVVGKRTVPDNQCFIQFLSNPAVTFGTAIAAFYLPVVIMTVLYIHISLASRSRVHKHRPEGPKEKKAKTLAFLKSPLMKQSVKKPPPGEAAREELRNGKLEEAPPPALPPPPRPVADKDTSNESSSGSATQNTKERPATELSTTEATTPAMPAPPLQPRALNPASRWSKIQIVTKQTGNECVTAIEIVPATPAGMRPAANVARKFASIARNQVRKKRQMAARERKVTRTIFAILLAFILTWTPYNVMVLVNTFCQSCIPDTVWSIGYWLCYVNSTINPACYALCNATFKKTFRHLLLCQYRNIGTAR
Method in brief: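 CHO-K1 cells co-expressing Gα15, loaded with Calcium 6 dye 1 h at room temperature, preincubated 2 min with compound ([…]), then challenged with acetylcholine at EC20. Peak fluorescence expressed as % activation between DMSO and ACh EC100 controls.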

[2] = Pharmacokinetic determination in Balb/c mice; conditions: mouse, in vivo, po, male Balb/c mice, p.o. 5 mg/kg; for MRT inf: read-out: MRT 0-∞
Description: To investigate the pharmacokinetic behaviours of the example compounds in both plasma and brain of Balb/c mice (test animals) following oral administration at a dose of 5 mg/kg.
(§1) 2.1 Test drugs: The example compounds of the present invention, made in house.
2.2 Test animals: Balb/c Mouse, male.
24 Balb/c mice, male; p.o. respectively at a dose of 5 mg/kg and an administration volume of 10 mL/kg after the mice were fasted overnight.
(§2) Formulation of a drug for oral administration: 0.5% CMC-Na (1% Tween 80).
(§3) 0.50 g of sodium carboxymethyl cellulose (CMC-Na, viscosity: 800-1200 Cps) was weighed and dissolved in 99 mL of purified water, and 1 ml of Tween 80 was added. The components were mixed thoroughly under stirring to form a clear solution.
The example compound was weighed into a 4-mL glass vial, 2.4 mL of the solution was added, and the mixture was subjected to ultrasound treatment for 10 minutes to obtain a homogeneous suspension with a concentration of 0.5 mg/mL.
(§4) After the test animals were euthanised by CO2, blood samples were collected from the heart and brain tissues were harvested at 0.25 h, 0.5 h, 1 h, 2 h, 4 h, 6 h, 8 h, and 24 h post-dose. Blood was placed in EDTA-2K tubes, and centrifuged at 6000 rpm for 6 min at 4°C to separate the plasma. Brain tissues were rinsed with pre-cold PBS, blotted dry, and weighed. Both plasma and brain samples were stored at -80°C. The animals were fed 4 h after administration.
(§5) • 1) 40 uL of plasma sample was precipitated with 160 uL of acetonitrile, mixed, and centrifuged at 3500 × g for 5-20 min. Brain tissues were diluted, homogenised and centrifuged. • 2) 100 uL of the treated supernatant solution was taken for LC/MS/MS analysis to determine the concentration of the test compounds.
(§6) • Liquid phase conditions: Shimadzu LC-20AD pump • Mass spectrometry conditions: AB Sciex API 4000 mass spectrometer • Chromatographic column: Phenomenex Gemiu 5 um C18 50 × 4.6 mm • Mobile phase: solution A: 0.1% formic acid in water, solution B: acetonitrile • Flow rate: 0.8 mL/min • Elution time: 0-4.0 min, with eluents as follows:
(§7) The main pharmacokinetic parameters were calculated using WinNonlin 8.1.

[3] = Pharmacokinetic determination in SD rats; conditions: rat, in vivo, po, male SD rats, p.o. 5 mg/kg; for MRT inf: read-out: MRT 0-∞
Description: To investigate the pharmacokinetic behaviours of the example compounds in both plasma and brain of SD rats (test animals) following oral administration at a dose of 5 mg/kg.
as §1
2.2 Test animals: SD Rat, male.
24 SD Rats, male; p.o. respectively at a dose of 5 mg/kg and an administration volume of 10 mL/kg after the rats were fasted overnight.
as §2, §3
The example compound was weighed into a 100 mL glass vial, 80 mL of the solution was added, and the mixture was subjected to ultrasound treatment for 10 minutes to obtain a homogeneous suspension with a concentration of 0.5 mg/mL.
as §4
as §5, with “3)” for “1)”, “4)” for “2)”
as §6, §7

[4] = in vivo; cited from earlier work
[5] = CHO-K1/M4/Gα15 cells, potentiation of acetylcholine (EC20) calcium flux, read-out: M4 FLIPR EC50

Row | EC50 (M4 receptor; [5]) | AUC(0-inf) [2] | Cmax [2] | Tmax [2] | MRT inf [2] | AUC(0-inf) [3] | Cmax [3] | Tmax [3] | MRT inf [3] | SMILES | mean reduction in the Positive and Negative Syndrome Scale (PANSS) total score from baseline ([1]; 20 mg twice daily) | mean reduction in the Positive and Negative Syndrome Scale (PANSS) total score from baseline ([1]; 30 mg once daily) | EC50 (M4 receptor) | learning deficits induced by the NMDA receptor antagonist MK-801 [4]
1 | – | – | – | – | – | – | – | – | – | Cc1cc(C)c2c(n1)CN(C(=O)CC1CN(c3ccnc(C(F)(F)F)c3)C1)C2 [CVL-231] | 17.9 points | 19.5 points | – | –
2 | 72.4 nM | 7370 ng·h/mL | 2560 ng/mL | 0.5 h | 2.5 h | 17500 ng·h/mL | 4520 ng/mL | 2 h | 2.7 h | Cc1c2c(c3ncnn3c1C)CN(C(=O)OC1CN(c3ccnc(C(F)(F)F)c3)C1)C2 [Example 32, 1-(2-(Trifluoromethyl)pyridin-4-yl)azetidin-3-yl 5,6-dimethyl-7,9-dihydro-8H-pyrrolo[3,4-c][1,2,4]triazolo[1,5-a]pyridine-8-carboxylate] | – | – | – | –
3 | 13.9 nM | 2540 ng·h/mL | 1950 ng/mL | 0.25 h | 1.2 h | 10800 ng·h/mL | 2450 ng/mL | 2 h | 2.6 h | Cc1c2c(c3ncnn3c1C)CN(C(=O)CC1CN(c3ccnc(OC(F)F)c3)C1)C2 [Example 52] | – | – | – | –
4 | – | 6130 ng·h/mL | 1550 ng/mL | 0.5 h | 2.6 h | 34800 ng·h/mL | 3110 ng/mL | 2 h | 5.8 h | Cc1c2c(c3ncnn3c1C)CN(C(=O)OC1CN(c3ccnc(C(F)F)c3)C1)C2 [Example 122] | – | – | – | –
5 | – | 4160 ng·h/mL | 1040 ng/mL | 0.5 h | 3.8 h | 12200 ng·h/mL | 2530 ng/mL | 2 h | 3.5 h | Cc1c2c(c3ncnn3c1C)CN(C(=O)OC1CN(c3ccnc(OC(F)F)c3)C1)C2 [Example 123] | – | – | – | –
6 | 85.8 nM | 4790 ng·h/mL | 1890 ng/mL | 0.5 h | 1.4 h | 11000 ng·h/mL | 1710 ng/mL | 2 h | 4.6 h | Cc1c2c(c3ncnn3c1C)CN(C(=O)CC1CN(c3ncc(C(F)(F)F)cn3)C1)C2 [Example 144, 1-(5,6-Dimethyl-7,9-dihydro-8H-pyrrolo[3,4-c][1,2,4]triazolo[1,5-a]pyridin-8-yl)-2-(1-(5-(trifluoromethyl)pyrimidin-2-yl)azetidin-3-yl)ethan-1-one] | – | – | – | –
7 | 32.6 nM | – | – | – | – | 11400 ng·h/mL | 1460 ng/mL | 1 h | 5.02 h | Cc1c2c(n3ncnc3c1Cl)CN(C(=O)CC1CN(c3ncc(F)cn3)C1)C2 [Example 346, 1-(4-Chloro-5-methyl-6,8-dihydro-7H-pyrrolo[3,4-e][1,2,4]triazolo[1,5-a]pyridin-7-yl)-2-(1-(5-fluoropyrimidin-2-yl)azetidin-3-yl)ethan-1-one] | – | – | – | –
8 | – | – | – | – | – | – | – | – | – | Cc1nnc2sc(C(=O)NCc3ccc(S(=O)(=O)C(F)(F)F)cc3)c(N)c2c1C [VU0467154] | – | – | – | improved learning deficits

Row | SMILES | EC50 (M4 receptor; [5]) | AUC(0-inf) [2] | Cmax [2] | Tmax [2] | MRT inf [2] | AUC(0-inf) [3] | Cmax [3] | Tmax [3] | MRT inf [3] | mean reduction in the Positive and Negative Syndrome Scale (PANSS) total score from baseline ([1]; 20 mg twice daily) | mean reduction in the Positive and Negative Syndrome Scale (PANSS) total score from baseline ([1]; 30 mg once daily) | EC50 (M4 receptor) | learning deficits induced by the NMDA receptor antagonist MK-801 [4]
9 | Cc1cn2nc(N3CC(OC(=O)N4Cc5c(C)c(C)n6ncnc6c5C4)C3)ccc2n1 [Example 105] | – | 10200 ng·h/mL | 1570 ng/mL | 0.5 h | 4.3 h | 16300 ng·h/mL | 2680 ng/mL | 1 h | 4.3 h | – | – | 19.9 nM | –
